Holding throughout (assay type): cell-based
One experiment relates to MCF-7. The experiment is described as follows: Cell cycle analysis (propidium iodide flow cytometry) in MCF-7. Conditions: MCF-7 cell cycle distribution. Here is the method:
Compound 6i arrested cells in the G2/M phase with %G2/M = 27.07, compared with %G2/M = 11.31 for the control MCF-7 (Table 5 and Figure 4).
These were performed using the approach described in the Supplementary Data, page 44 [46]. […]
thoroughly, and then centrifuge at 4°C to collect contents to the bottom of the tube. Chill on ice before using. Centrifuge again briefly at 4°C if needed. Preparation of a reaction cocktail is crucial in quantitative PCR applications to reduce pipetting errors and maximize assay precision and accuracy. Assemble the reaction cocktail with all required components except sample template (total RNA) and dispense equal aliquots into each reaction tube. Add target sample to each reaction as the final step. Addition of sample as 5–10 μl volumes will improve assay precision. Replicate samples should be assembled as a master mix with a single addition of sample template.
Cell cycle analysis and apoptosis
Transfer the previously prepared cells from 4 °C to the bench-top and equilibrate to room temperature. Gently re-suspend cells by inverting the tube or by gentleup and down pipetting.
There may be visible thin salt crystals in the tube but this will not affect the sedimentation of the cells in the next step. Pellet the cells at 500 x g for 5 minutes. Carefully aspirate the supernatant without disrupting the pellet. It is better to incompletely remove the supernatant than to accidently aspirate part of the pellet and lose cells. Wash the cells by gently resuspending in 1 mL 1X PBS.
Again, pellet the cells at 500 x g for 5 minutes and carefully remove the supernatant. Gently resuspend the cell pellet in 200 μL 1X Propidium Iodide + RNase Staining Solution. Then ensure that the cells are fully resuspended. Incubate at 37 °C in the dark for 20 – 30 minutes. Place tubes on ice (still in the dark) and prepare for flow cytometry analysis. Gently resuspend cells that settled during the incubation by pipetting up and down. If desired, pass cells through an appropriate filter (not provided) to remove cell aggregates. […] Collect Propidium iodide fluorescence in FL2. […]
(In general: A flow cytometer gives signals particle by particle.)

Another experiment has as its system Caspase-9. The experiment is described as follows: RT-PCR gene expression in treated MCF-7 cells: caspase 9. Conditions: treated MCF-7 cells vs untreated control MCF-7 (=1). Here is the method:
The gene expression levels of apoptosis genes in MCF-7 cells were measured using RT-PCR to validate the apoptosis-inducing behaviors of the potent lead compound 6i in MCF-7 cells.
The gene expression levels of apoptosis genes were evaluated in MCF-7 cells using the following approaches in the Supplementary Data, page 43.
Inhibitor solution of each well labeled as “Test Inhibitor”. For the “Positive Control" and “Blank”, add 5 μl of the same solution without inhibitor (Inhibitor buffer). Prepare 3 ml of 1x Kinase Buffer 1 by mixing 600 μl of 5x Kinase Buffer 1 with 2400 μl water. 3 ml of 1x Kinase Buffer 1 is sufficient for 100 reactions. To the wells designated as "Blank", add 20 μl of 1x Kinase Buffer 1.
Thaw VEGFR2 enzyme on ice. Upon first thaw, briefly spin tube containing enzyme to recover full content of the tube. Calculate the amount of VEGFR2 required for the assay and dilute enzyme to 1 ng/μl with 1x Kinase Buffer 1. Store remaining undiluted enzyme in aliquots at -80°C. Note:
VEGFR2 enzyme is sensitive to freeze/thaw cycles. Avoid multiple freeze/thaw cycles. […]
use thawed aliquots or diluted enzyme. […]
thoroughly, and then centrifuge at 4°C to collect contents to the bottom of the tube. […] Preparation of a reaction cocktail is crucial in quantitative PCR applications to reduce pipetting errors and maximize assay precision and accuracy. […]

For a further experiment, the system named is MCF-10A. The experiment is described as follows: MTT assay, cytotoxicity toward MCF-10A. Conditions: Homo sapiens. Here is the method:
The developed compounds were evaluated in vitro using the MTT cell viability assay following the published techniques (Supplementary Data, page 42). […]
The 96 well tissue culture plate was seeded with 1 X 10^5 cells / ml (100 ul / well) and cultured at 37 degrees Celsius for 24 hours to form a full monolayer sheet. After forming a confluent sheet of cells, growth medium was decanted from 96 well micro titer plates, the cell monolayer was washed twice with wash media, and two-fold dilutions of the tested sample were prepared in RPMI medium with 2% serum (maintenance medium). In each well, 0.1 ml of each dilution was examined, with three wells serving as controls and receiving only maintenance media.
The plate was incubated at 37 degrees Celsius and then analyzed. Cells were examined for any physical evidence of toxicity, such as partial or total monolayer loss, rounding, shrinkage, or cell granulation. MTT solution (5mg/ml in PBS) was prepared (BIO BASIC CANADA INC), and 20ul MTT solution was added to each well. Shake the MTT into the medium for 5 minutes at 150rpm on a shaking table. Incubate for 4 hours (37°C, 5% CO2) to allow the MTT to be digested. Remove the media. (If required, dry plate on paper towels to remove residue. In 200ul DMSO, resuspend formazan (MTT metabolic product). Shake at 150rpm for 5 minutes to properly mix the formazan into the solvent. At 560nm, measure optical density and subtract background at 620nm. The optical density should be proportional to the number of cells. MCF-7 and MCF-10A cell lines were provided with 10% fetal bovine serum (FBS, Sigma-Aldrich, MO, USA). Data are presented as the mean of the IC50 values ± SD from three different experiments. […]
For orientation: Tetrazolium assays rely on reduction of a dye to a coloured formazan, in cell work by metabolically active cells.

The values below come from publication PMC10892120, “Design, Synthesis and Biological Assessment of N′-(2-Oxoindolin-3-ylidene)-6-methylimidazo[2,1-b]thiazole-5-carbohydrazides as Potential Anti-Proliferative Agents toward MCF-7 Breast Cancer” (Pharmaceuticals, 2024).

Consider `CCCCN1C(=O)C(=NNC(=O)c2c(C)nc3sccn23)c2ccccc21` [Compound 6i, N′-(1-Butyl-2-oxoindolin-3-ylidene)-6-methylimidazo[2,1-b]thiazole-5-carbohydrazide], for which the “%G2/M” value in the experiment on MCF-7 (control 11.31) came out at 27.07%. Besides, in the experiment with MCF-7 (control 23.96), the “%S” value is on record as 19.27%. Also, the “%G0–G1” value with MCF-7 (control 64.73) turned out to be 53.66%. In addition, the “RT-PCR Fold Change Caspase-9” value in the experiment on Caspase-9 stood at 4.947 fold. In the experiment on MCF-10A, the IC50 was determined as 54.6 ± 1.29 µM.

The term IC50 denotes the midpoint of a concentration-inhibition curve. A higher IC50 goes with a need for much substance.
